Test results as given in article PMC10288853 (Frontiers in Oncology, 2023).
Values joined by “and” are separate entries in the source; they are usually repeats but may differ in a detail not shown here. Equal entries are not always repeated.

Tests used:
[1] = system: patients with metastatic uveal melanoma; assay: Safety and tolerability: adverse events in phase Ib patients; details: given in the combination, all patients
Protocol: Treated patients were assessed for toxicity by physical examinations on a weekly basis during cycle 1 and on day 1 of each subsequent cycle, with laboratory assessments and ECGs performed on cycle 1 day 1, cycle 1 day 15, and on day 1 of each subsequent cycle. Patients underwent imaging studies for response evaluation during screening and after every 2 cycles of treatment.

[2] = Plasma pharmacokinetics by LC-MS/MS; details: for AUC(0-t) / Cmax / Tmax: human, plasma, oral; for Cmax: Median Cmax [Min; for Tmax: Median Tmax [Min
Protocol: (§1) Samples were collected on days 1, 8, 15 and 22 of cycle 1, and pre-dose on day 1 of cycles 2 through 6. Plasma concentrations were measured using a validated liquid chromatography-tandem mass spectrometry assay. The lower limit of quantification (LLOQ) was 3.0 ng/mL for sotrastaurin and its metabolite AEE800. […] Concentrations below the LLOQ were treated as zero in summary statistics.
(§2) The PK analyses used the actual dose received for each particular PK profile. Parameters relating to the PK profile (e.g., AUC and Cmax) were summarized for data collected on C1D1 and C1D15.

[3] = clinical; details: human, in vivo, median AUC0-8hr of sotrastaurin
Protocol: as §1, §2

[4] = human, in vivo
Protocol: as §1, §2

[5] = system: metastatic uveal melanoma; design: method as in PMID 34551229, PMID 35254876; details: previously untreated HLA-A*0201 positive patients, versus best alternative care; ref [6], [7]; cited from earlier work
[6] = b.i.d. dosing in combination with sotrastaurin
[7] = Max], plasma binimetinib, 2nd section, Cycle 1 Day 1 (C1D1), Dose Level 1: AEB071 150 mg bid and MEK162 45 mg bid
[8] = Max], plasma binimetinib, 2nd section, Cycle 1 Day 1 (C1D1), Dose Level 3: AEB071 300 mg bid and MEK162 30 mg bid
[9] = Max], plasma binimetinib, 2nd section, Cycle 1 Day 1 (C1D1), Dose Level 4: AEB071 300 mg bid and MEK162 45 mg bid
[10] = Max], plasma binimetinib, 2nd section, Cycle 1 Day 1 (C1D1), Dose Level 5: AEB071 350 mg bid and MEK162 30 mg bid
[11] = Max], plasma binimetinib, 2nd section, Cycle 1 Day 1 (C1D1), Dose Level 6: AEB071 400 mg bid and MEK162 30 mg bid
[12] = Max], plasma binimetinib, Cycle 1 Day 1 (C1D1), Dose Level 1: AEB071 150 mg bid and MEK162 45 mg bid
[13] = Max], plasma binimetinib, Cycle 1 Day 1 (C1D1), Dose Level 2: AEB071 200 mg bid and MEK162 45 mg bid
[14] = Max], plasma binimetinib, Cycle 1 Day 1 (C1D1), Dose Level 3: AEB071 300 mg bid and MEK162 30 mg bid
[15] = Max], plasma binimetinib, Cycle 1 Day 1 (C1D1), Dose Level 4: AEB071 300 mg bid and MEK162 45 mg bid
[16] = Max], plasma binimetinib, Cycle 1 Day 1 (C1D1), Dose Level 5: AEB071 350 mg bid and MEK162 30 mg bid
[17] = Max], plasma binimetinib, Cycle 1 Day 1 (C1D1), Dose Level 6: AEB071 400 mg bid and MEK162 30 mg bid

In the case of `CN1CCN(c2nc(C3=C(c4c[nH]c5ccccc45)C(=O)NC3=O)c3ccccc3n2)CC1` [sotrastaurin], the Dose reductions applied [1] is reported as 76.3%, the “accumulation of sotrastaurin following b.i.d. dosing” value ([2]; exposure on day 15 compared with day 1) is reported as “no observed accumulation” and the AUC(0-t) ([3]; 150 mg) is reported as 6070 ng·h/mL. The AUC(0-t) ([3]; 400 mg) was 21600 ng·h/mL and the “median RACC, range at different doses of sotrastaurin” value [4] was 0.72-1.15.
For “tebentafusp: agent improving overall survival in previously untreated HLA-A*0201 positive metastatic uveal melanoma patients”, the “hazard ratio for death” value [5] is listed as 0.51 and the “reduction in the risk of death” value [5] is listed as 49%.
In the case of `Cn1cnc2c(F)c(Nc3ccc(Br)cc3F)c(C(=O)NOCCO)cc21` [binimetinib], the Dose reductions applied [1] is reported as 65.8%, the “median RACC of binimetinib, other three dose levels lower than or close to 1” value [2, 6] is reported as 0.76 and 0.78 and 1.08 and the “median RACC of binimetinib, three dose levels much higher than 1” value [2, 6] is reported as 1.34 and 1.42 and 1.54. It also gave an AUC(0-t) ([2]; 30 mg, median AUC0-8hr range of binimetinib, cycle 1 day 15, binimetinib 30 mg b.i.d. with varying doses of sotrastaurin) of 1210 to 1450 ng·h/mL, an AUC(0-t) ([2]; 45 mg, median AUC0-8hr range of binimetinib, cycle 1 day 15, binimetinib 45 mg b.i.d. with varying doses of sotrastaurin) of 1480 to 2140 ng·h/mL and an AUC(0-t) ([2]; Median AUC0–8hr [Min, Max], plasma binimetinib, 2nd section, Cycle 1 Day 1 (C1D1), Dose Level 1: AEB071 150 mg bid and MEK162 45 mg bid) of 2000 ng·h/mL. The AUC(0-t) ([2]; Median AUC0–8hr [Min, Max], plasma binimetinib, 2nd section, Cycle 1 Day 1 (C1D1), Dose Level 3: AEB071 300 mg bid and MEK162 30 mg bid) was 1210 ng·h/mL, the AUC(0-t) ([2]; Median AUC0–8hr [Min, Max], plasma binimetinib, 2nd section, Cycle 1 Day 1 (C1D1), Dose Level 4: AEB071 300 mg bid and MEK162 45 mg bid) was 1480 ng·h/mL and the AUC(0-t) ([2]; Median AUC0–8hr [Min, Max], plasma binimetinib, 2nd section, Cycle 1 Day 1 (C1D1), Dose Level 5: AEB071 350 mg bid and MEK162 30 mg bid) was 1250 ng·h/mL. It also gave an AUC(0-t) ([2]; Median AUC0–8hr [Min, Max], plasma binimetinib, 2nd section, Cycle 1 Day 1 (C1D1), Dose Level 6: AEB071 400 mg bid and MEK162 30 mg bid) of 1450 ng·h/mL, an AUC(0-t) ([2]; Median AUC0–8hr [Min, Max], plasma binimetinib, Cycle 1 Day 1 (C1D1), Dose Level 1: AEB071 150 mg bid and MEK162 45 mg bid) of 1540 ng·h/mL and an AUC(0-t) ([2]; Median AUC0–8hr [Min, Max], plasma binimetinib, Cycle 1 Day 1 (C1D1), Dose Level 2: AEB071 200 mg bid and MEK162 45 mg bid) of 1550 ng·h/mL. For the same compound, the AUC(0-t) ([2]; Median AUC0–8hr [Min, Max], plasma binimetinib, Cycle 1 Day 1 (C1D1), Dose Level 3: AEB071 300 mg bid and MEK162 30 mg bid) was 1130 ng·h/mL, the AUC(0-t) ([2]; Median AUC0–8hr [Min, Max], plasma binimetinib, Cycle 1 Day 1 (C1D1), Dose Level 4: AEB071 300 mg bid and MEK162 45 mg bid) was 1610 ng·h/mL and the AUC(0-t) ([2]; Median AUC0–8hr [Min, Max], plasma binimetinib, Cycle 1 Day 1 (C1D1), Dose Level 5: AEB071 350 mg bid and MEK162 30 mg bid) was 1260 ng·h/mL. It also gave an AUC(0-t) ([2]; Median AUC0–8hr [Min, Max], plasma binimetinib, Cycle 1 Day 1 (C1D1), Dose Level 6: AEB071 400 mg bid and MEK162 30 mg bid) of 985 ng·h/mL, a Cmax [2, 7] of 493 ng/mL and a Cmax ([2]; Max], plasma binimetinib, 2nd section, Cycle 1 Day 1 (C1D1), Dose Level 2: AEB071 200 mg bid and MEK162 45 mg bid) of 410 ng/mL. It also gave a Cmax [2, 8] of 246 ng/mL, a Cmax [2, 9] of 391 ng/mL and a Cmax [2, 10] of 280 ng/mL. The Cmax [2, 11] was 346 ng/mL, the Cmax [2, 12] was 366 ng/mL and the Cmax [2, 13] was 450 ng/mL. It also gave a Cmax [2, 14] of 213 ng/mL, a Cmax [2, 15] of 370 ng/mL and a Cmax [2, 16] of 259 ng/mL. The Cmax [2, 17] was 279 ng/mL, the Tmax [2, 7] was 2 h and the Tmax [2, 8] was 3 h. The Tmax [2, 9] was 2.9 h, the Tmax [2, 10] was 1.9 h and the Tmax [2, 11] was 1.5 h. The Tmax [2, 12] was 1.1 h, the Tmax [2, 13] was 1.1 h and the Tmax [2, 14] was 2 h. The Tmax [2, 15] was 4 h, the Tmax [2, 16] was 2 h and the Tmax [2, 17] was 1.1 h. For the same compound, the “Median AUC0–8hr [Min; Max]” value ([2]; plasma binimetinib, 2nd section, Cycle 1 Day 1 (C1D1), Dose Level 2: AEB071 200 mg bid and MEK162 45 mg bid) was 2137.7 [1121.6; 2772.3] hr*ng/ml.
